From PMC12638379, “An innovative approach to development of new pyrazolylquinolin-2-one hybrids as dual EGFR and BRAF^V600E inhibitors” (Molecular Diversity, 2025)
Read-outs that look alike come from different tables or passages of the source.

Tested on: NCI 60 cancer cell lines
Experiment: NCI anticancer screening over a panel of 60 cancer cells, single concentration 10 µM
Type: cell-based, human
Conditions: Homo sapiens, read-out: % Growth Inhibition (GI %)
Method: Ten final compounds 4a–j and five intermediates 2a–e have been selected by the National Cancer Institute (NCI) for anticancer screening over a panel of 60 cancer cells that cover a variety of histological tissues, including the central nervous system, leukemia, lung, colon, kidney, ovary, breast, and prostate, using the protocol established by the National Cancer Institute (NCI). In a primary screening, each compound was screened at a concentration of 10 µM.
Compounds 2a-e and 4a-j were selected by the National Cancer Institute (NCI) according to the protocol of the Compound Evaluation Branch of the National Cancer Institute, Bethesda, USA, for in vitro anticancer screening which refers in turn to apoptotic activity. The methodology of the NCI anticancer screening has been described in detail elsewhere (http://www.dtp.nci.nih.gov).

COc1ccc2[nH]c(=O)cc(-n3ncc(/C(C)=N/Nc4ccc(S(N)(=O)=O)cc4)c3C)c2c1 [Compound 4c, (E)-4-(2-(1-(1-(6-methoxy-2-oxo-1,2-dihydroquinolin-4-yl)-5-methyl-1H-pyrazol-4-yl)ethylidene)hydrazineyl)benzenesulfonamide]
inhibition at 10 µM (786-0, Renal cancer 786-0, 10 μM): < 5% | inhibition at 10 µM (A498, Renal cancer A498, 10 μM): 7.1% | inhibition at 10 µM (A549, Non-small cell lung cancer A549/ATCC, 10 μM): < 5% | inhibition at 10 µM (ACHN, Renal cancer ACHN, 10 μM): < 5% | inhibition at 10 µM (BT-549, Breast cancer BT-549, 10 μM): < 5% | inhibition at 10 µM (CAKI-1, Renal cancer CAKI-1, 10 μM): < 5% | inhibition at 10 µM (CCRF-CEM, Leukemia CCRF-CEM, 10 μM): < 5% | inhibition at 10 µM (COLO 205, Colon cancer COLO 205, 10 μM): < 5% | inhibition at 10 µM (DU-145, Prostate cancer DU-145, 10 μM): < 5% | inhibition at 10 µM (HCC 2998, Colon cancer HCC-2998, 10 μM): < 5% | inhibition at 10 µM (HCT-116, Colon cancer HCT-116, 10 μM): < 5% | inhibition at 10 µM (HL-60, Leukemia HL-60(TB), 10 μM): < 5% | inhibition at 10 µM (HOP-92, Non-small cell lung cancer HOP-92, 10 μM): < 5% | inhibition at 10 µM (HT-29, Colon cancer HT29, 10 μM): < 5% | inhibition at 10 µM (IGROV-1, Ovarian cancer IGROV1, 10 μM): < 5% | inhibition at 10 µM (K562, Leukemia K-562, 10 μM): < 5% | inhibition at 10 µM (KM12, Colon cancer KM12, 10 μM): < 5% | inhibition at 10 µM (Leukemia SR, 10 μM): 13% | inhibition at 10 µM (MCF7, Breast cancer MCF7, 10 μM): 6.69% | inhibition at 10 µM (MDA-MB-231, Breast cancer MDA-MB-231/ATCC, 10 μM): 8.98% | inhibition at 10 µM (MDA-MB-435, Melanoma MDA-MB-435, 10 μM): < 5% | inhibition at 10 µM (MDA-MB-468, Breast cancer MDA-MB-468, 10 μM): 7.22% | inhibition at 10 µM (MOLT-4, Leukemia MOLT-4, 10 μM): < 5% | inhibition at 10 µM (Melanoma M14, 10 μM): < 5% | inhibition at 10 µM (Melanoma MALM-3M, 10 μM): 10.6% | inhibition at 10 µM (NCI-H23, Non-small cell lung cancer NCI-H23, 10 μM): 6% | inhibition at 10 µM (NCI-H226, Non-small cell lung cancer NCI-H226, 10 μM): 8.4% | inhibition at 10 µM (NCI-H460, Non-small cell lung cancer NCI-H460, 10 μM): < 5% | inhibition at 10 µM (NCI-H522, Non-small cell lung cancer NCI-H522, 10 μM): 11.8% | inhibition at 10 µM (OVCAR-3, Ovarian cancer OVCAR-3, 10 μM): < 5% | inhibition at 10 µM (OVCAR-4, Ovarian cancer OVCAR-4, 10 μM): < 5% | inhibition at 10 µM (OVCAR-5, Ovarian cancer OVCAR-5, 10 μM): < 5% | inhibition at 10 µM (OVCAR-8, Ovarian cancer OVCAR-8, 10 μM): < 5% | inhibition at 10 µM (Prostate cancer PC-3, 10 μM): < 5% | inhibition at 10 µM (RPMI-8226, Leukemia RPMI-8226, 10 μM): < 5% | inhibition at 10 µM (RXF 393, Renal cancer RXF 393, 10 μM): 6.12% | inhibition at 10 µM (SF-268, CNS Cancer SF-268, 10 μM): < 5% | inhibition at 10 µM (SF-295, CNS Cancer SF-295, 10 μM): 10.5% | inhibition at 10 µM (SF-539, CNS Cancer SF-539, 10 μM): 5.07% | inhibition at 10 µM (SK-MEL-2, Melanoma SK-MEL-2, 10 μM): < 5% | inhibition at 10 µM (SK-MEL-5, Melanoma SK-MEL-5, 10 μM): < 5% | inhibition at 10 µM (SK-MEL-28, Melanoma SK-MEL-28, 10 μM): < 5% | inhibition at 10 µM (SK-OV-3, Ovarian cancer SK-OV-3, 10 μM): < 5% | inhibition at 10 µM (SN12C, Renal cancer SN12C, 10 μM): 8.13% | inhibition at 10 µM (SNB-19, CNS Cancer SNB-19, 10 μM): 5.89% | inhibition at 10 µM (SNB-75, CNS Cancer SNB-75, 10 μM): < 5% | inhibition at 10 µM (SW-620, Colon cancer SW-620, 10 μM): < 5% | inhibition at 10 µM (T47D, Breast cancer T-47D, 10 μM): 12.1% | inhibition at 10 µM (TK-10, Renal cancer TK-10, 10 μM): < 5% | inhibition at 10 µM (U-251, CNS Cancer U251, 10 μM): < 5% | inhibition at 10 µM (UACC-62, Melanoma UACC-62, 10 μM): 5.15% | inhibition at 10 µM (UACC-257, Melanoma UACC-257, 10 μM): < 5% | inhibition at 10 µM (UO-31, Renal cancer UO-31, 10 μM): 12.9%
